Results on three compounds are retold here after patent US8835403B2, “Algin oligosaccharides and the derivatives thereof as well as the manufacture and the use of the same” (priority 2004, dated 2014).

The subject of one assay is Na+, K+-ATPase. The assay can be described thus: Na+, K+-ATPase activity in cerebral cortex and hippocampus of Aβ1-40-induced AD mice. The assay is classed as in vivo. Particulars: HBY 0.2 mg/kg. The procedure:
(§1) Following the behavioral test, rats are decapitated. Cerebral cortex and hippocampus are dissected on ice immediately, and stored at −80° C. after quick freezing in liquid nitrogen for 1 hour. MDA, SOD, GSH-PX, Na^+, K^+-ATPase, AchE and CHAT activities in the brain regions are determined using the respective kits. The homogenates of cerebral cortex and hippocampus are prepared with saline with a final concentration of 10% and 5%. The supernatant were obtained after centrifuging at 3600 rpm to test MDA, CuZn-SOD, GSH-PX, Na^+K^+-ATPase, AchE, and CHAT activities. The activity of ChAT is determined with isotope-labeled method. The other indexes and amount of total proteins are tested with the respective kits supplied by Nanjing Jiancheng Bioengineering Institute.

In the next assay the test system is MDA. The assay can be described thus: MDA content of cerebral cortex and hippocampus of Aβ1-40-induced AD mice. Format: in vivo. To be noted: HBY 0.2 mg/kg.
Assay [1] has as its system AD mice induced by Aβ1-40. As to the kind of experiment: Morris water maze test of AD mice induced by Aβ1-40. Format: in vivo. The procedure:
(§2) Male Balb/c mice (18-22 g, purchased from Laboratory Centre of Shandong University) are weighed and randomly assigned to six groups as follows: a control group, a model group, a low-concentration (15 mg/kg) 6-mer-treated group, a middle-concentration (30 mg/kg) 6-mer-treated group, a high-concentration (60 mg/kg) 6-mer-treated group, and a Huperzine A-treated (HBY, with a concentration of 0.2 mg/kg) group. The mice were oral administered with corresponding drugs on day 3 after grouping. The drugs were administered once a day consecutively with a dosage of 0.5 ml/20 g until the experiment is completed. The mice of control and model groups were simultaneously administered with an equivalent amount of normal saline.
On the 8th day after drug administration, mice are injected with aged Aβ1-40 except the vehicle group as the method of reference (Jhoo J H et al., β-amyloid (1-42)-induced learning and memory deficits in mice: involvement of oxidative burdens in the hippocampus and cerebral cortex. Behavioural Brain Research (2004) 155: 185-196) to induce the AD model. Aged Aβ1-40 solution is injected into the right cerebral ventricle. […] However, on the 1st day of test, this increased escape latency is shortened in all drug-treated groups except the group treated with 15 mg/kg of 6-mer. And the escape latency of 60 mg/kg 6-mer-treated group has statistical significance compared with that of the model group (P<0.05). On the 2nd and 3rd day of test, the escape latency of all drug-treated groups are shortened, wherein that of 60 mg/kg 6-mer-treated group and HBY-treated group have statistical significance compared with that of the model group (P<0.05).
On the 4th day of Morris water maze test, the original plate is removed and the percentage of time of mice staying at the phase of original plate within 60 s is recorded.

Another assay concerns SOD. The assay can be described thus: SOD activity of cerebral cortex and hippocampus of Aβ1-40-induced AD mice. The assay is classed as in vivo. To be noted: HBY 0.2 mg/kg.
Assay [2] concerns AD mice induced by Aβ1-40. As to the kind of experiment: Step-through passive avoidance task of AD mice induced by Aβ1-40. The assay is classed as in vivo. Particulars: HBY 0.2 mg/kg. The procedure: as §2
On the 25th day after Aβ injection, mice are further trained for step-through passive avoidance task. In the task, each mouse is placed in the illuminated compartment of the apparatus, facing away from the dark compartment, and the door is opened, allowing access to the dark compartment. Once the mouse enters the dark compartment, it receives an inescapable electric shock on the feet (36 V) through the stainless steel grid floor. The test is similarly performed after 24 h. The entry time of each mouse into the dark chamber (step-through latency, maximum testing limited to 3 min) and the number of entries into the dark compartment (number of errors) are recorded.
Each group has 8 animals. The data are presented as mean±SE. The symbol # means significant difference compared with the control group (P<0.05). * means significant difference compared with the model group (P<0.05). The step-through latency of Aβ1-40-treated group is shortened (P<0.01) and the error number is increased (P<0.05) compared with that of the control group, indicating the successful establishment of AD mice.

The next assay deals with ChAT. The assay can be described thus: Cerebral cortex ChAT activity of Aβ1-40-induced AD mice. The assay is classed as in vivo. Particulars: HBY 0.2 mg/kg.
In a further assay the test system is GSH-PX. The assay can be described thus: GSH-PX activity in cerebral cortex and hippocampus of Aβ1-40-induced AD mice. The assay is classed as in vivo. Particulars: HBY 0.2 mg/kg. The procedure:
as §1
The GSH-PX activity in cerebral cortex and hippocampus is decreased after usage of Aβ with significant difference to the control group in hippocampus (p<0.05).

For assay [3], the system named is diabetic mice induced by STZ. As to the kind of experiment: Blood glucose of diabetic mice induced by streptozotocin (STZ). Format: in vivo. Particulars: dimethyldiguanide 5 mg/kg for 10 days, blood on 11th day; STZ 150 mg/kg i.p. The procedure:
Sixty male NIH mice (weighed 18-22 g) are randomly divided to control, model, 50, 150, 450 mg/kg 6-mer-treated and 5 mg/kg dimethyldiguanide-treated groups. The mice are injected intraperitoneally with 150 mg/kg STZ except control group at the 1st day. Then the mice are given accordingly drugs consecutively for 10 days and eyeballs are picked out to extract blood on the 11th day. The blood is taken to measure the glucose concentration.

The next assay concerns the target Aβ1-40 fibril (Homo sapiens, UniProt P05067). The assay can be described thus: Destability of preformed Aβ1-40 fibril (TEM). The assay is classed as biochemical. To be noted: Aβ1-40 aged 7 d, then heparin for additional 24 h (FIG. 10B). The procedure:
1 mg/ml of distilled water-resolved Aβ1-40 is aged at 37° C. for 7d, after which it is exposed to 6-mer for 3 days.

In a further assay the target is Aβ1-40 (Homo sapiens, UniProt P05067). As to the kind of experiment: Conformation of Aβ1-40 by CD spectra. Format: biochemical. To be noted: heparin (FIG. 11B). The procedure:
CD spectra (J-[…], JASCO, Japan) of monomeric Aβ1-40 (250 μg/ml in TBS (100 mM Tris, 50 mM NaCl, pH7.4)) incubated at 37° C. for 12 h is mainly characterized by β-sheet secondary structure (FIG. 11A).

Sequence of Aβ1-40 (P05067 672-711 limits assumed): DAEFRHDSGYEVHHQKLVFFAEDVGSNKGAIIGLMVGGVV
Sequence of Aβ1-40 fibril (P05067 672-711 limits assumed): as above

On to `C/C=C1\[C@H]2C=C(C)C[C@]1(N)c1ccc(=O)[nH]c1C2` [HBY, Huperzine A, reference compound], for which the “ATPase activity (μmol Pi/mg prot./hour) cerebral cortex” value in the assay on Na+, K+-ATPase (cerebral cortex) stood at 0.91 ± 0.05 μmol Pi/mg prot./hour. Besides, the “ATPase activity (μmol Pi/mg prot./hour) hippocampus” value with Na+, K+-ATPase (hippocampus) is 2.35 ± 10.43 μmol Pi/mg prot./hour. Also, in the assay with MDA (cerebral cortex), the “MDA content (nmol/ml) cerebral cortex” value was 1.61 ± 0.13 nmol/mL. In addition, the “MDA content (nmol/ml) hippocampus” value in the assay with MDA (hippocampus) is 2.26 ± 0.39 nmol/mL. The “Escape latency (s) 1st day” value in assay [1] (HBY 0.2 mg/kg oral once a day, 1st day of test) is 76.29 ± 9.74 s. In addition, the “Escape latency (s) 2nd day” value in assay [1] (HBY 0.2 mg/kg oral once a day, 2nd day of test) is listed as 64.58 ± 10.36 s. The “Escape latency (s) 3rd day” value in [1] (HBY 0.2 mg/kg oral once a day, 3rd day of test) came to 63.83 ± 10.12 s. The “Latency bias(%)” value in assay [1] (probe trial, 4th day, within 60 s, HBY 0.2 mg/kg) worked out at 22.18 ± 5.93%. The “SOD activity (NU/mg prot.) cerebral cortex” value in the assay on SOD (cerebral cortex) turned out to be 48.95 ± 2.13 NU/mg prot. The “SOD activity (NU/mg prot.) hippocampus” value with SOD (hippocampus) came out at 69.91 ± 6.51 NU/mg prot. In addition, in assay [2] (vs model group (FIG. 5)), the step-through latency result is reported as “significantly prolonged”. In addition, the number of errors entry in [2] (vs model group (FIG. 6)) is on record as “significantly reduced”. Besides, the “ChAT activity (pmol/mg prot./min)” value in the assay on ChAT stood at 100.70 ± 5.99 pmol/mg prot./min. The “GSH-PX (U/mg prot.) cerebral cortex” value with GSH-PX (cerebral cortex) came to 8.85 ± 1.33 U/mg prot. The “GSH-PX (U/mg prot.) hippocampus” value in the assay with GSH-PX (hippocampus) amounted to 5.29 ± 0.99 U/mg prot.

Take `CN(C)C(=N)NC(=N)N` [Dimethyldiguanide, dimethyldiguanide, reference compound]: the “Blood glucose concentration” value in assay [3] is listed as 201.6 ± 58.9 mg/dL.

Turning to heparin [reference compound], the “effect on preformed Aβ1-40 fibers (TEM)” value on Aβ1-40 fibril was “become much denser and longer”. In addition, the “conformational transition of Aβ1-40 to β-sheet structure (CD)” value at Aβ1-40 is given as “significantly accelerates the conformational transition to β-sheet structure”.
